In US20070082880A1 (priority 2005, published 2007) one finds IC50 data, which are given here for 24 compounds.

Structures are written as SMILES.

The target of the test is T1, human PKCθ full length enzyme (Homo sapiens, UniProt Q04759).
T1 construct: human PKCθ full length enzyme (Panvera Catalog No. P2996); purchased Panvera P2996
T1 sequence (Q04759 whole entry): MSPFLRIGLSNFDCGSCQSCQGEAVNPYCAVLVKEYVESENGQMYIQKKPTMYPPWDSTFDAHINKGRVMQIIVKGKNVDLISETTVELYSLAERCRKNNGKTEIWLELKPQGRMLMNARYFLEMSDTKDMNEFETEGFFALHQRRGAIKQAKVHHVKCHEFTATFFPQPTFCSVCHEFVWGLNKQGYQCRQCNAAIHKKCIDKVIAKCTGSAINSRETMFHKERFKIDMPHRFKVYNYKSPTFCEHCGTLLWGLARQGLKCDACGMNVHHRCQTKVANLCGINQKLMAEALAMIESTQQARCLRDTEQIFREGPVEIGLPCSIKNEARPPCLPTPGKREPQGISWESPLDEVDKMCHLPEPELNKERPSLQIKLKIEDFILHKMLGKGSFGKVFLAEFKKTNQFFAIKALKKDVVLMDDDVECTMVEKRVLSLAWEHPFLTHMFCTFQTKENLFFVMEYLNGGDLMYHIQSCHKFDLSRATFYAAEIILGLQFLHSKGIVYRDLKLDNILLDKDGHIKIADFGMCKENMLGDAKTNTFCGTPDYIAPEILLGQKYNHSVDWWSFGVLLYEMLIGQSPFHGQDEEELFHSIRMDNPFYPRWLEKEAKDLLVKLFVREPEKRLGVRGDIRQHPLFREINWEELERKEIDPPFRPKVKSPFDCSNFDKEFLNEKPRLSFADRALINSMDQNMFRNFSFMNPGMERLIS
The test is described as follows: PKCθ IMAP Assay. In kind it is biochemical. Conditions: average value when one or more samples were tested; ATP 6 uM, PKCθ 1 nM. Summed up:
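IMAP fluorescence polarization after 20 min with binding beads measured phosphorylation of 100 nM 5FAM-peptide. Reactions held 1 nM full-length human PKCθ, 6 uM ATP, 5% DMSO and DTT-containing buffer, 25 min at room temperature. Compounds tested as 2:1 serial dilutions; controls lacked ATP or enzyme.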
By IC50 is commonly meant the midpoint of a concentration-inhibition curve. The low end stands for inhibition by little substance, the high end for a need for much substance. Take `Cc1c(Nc2c(C#N)cnc3sc(-c4cccc(C(=O)NCCN(C)C)c4)c(C)c23)ccc2[nH]ccc12` [Compound 429, 3-{5-cyano-3-methyl-4-[(4-methyl-1H-indol-5-yl)amino]thieno[2,3-b]pyridin-2-yl}-N-[2-(dimethylamino)ethyl]benzamide]: the IC50 came out at 60 nM.
As for `Cc1c(Nc2c(C#N)cnc3sc(-c4ccc(C(=O)NCCN(C)C)cc4)c(C)c23)ccc2[nH]ccc12` [Compound 430, 4-{5-cyano-3-methyl-4-[(4-methyl-1H-indol-5-yl)amino]thieno[2,3-b]pyridin-2-yl}-N-[2-(dimethylamino)ethyl]benzamide], the figure is 116 nM.
The value for `Cc1c(Nc2c(C#N)cnc3sc(-c4ccc(S(=O)(=O)NCCO)cc4)c(C)c23)ccc2[nH]ccc12` [Compound 431, 4-{5-cyano-3-methyl-4-[(4-methyl-1H-indol-5-yl)amino]thieno[2,3-b]pyridin-2-yl}-N-(2-hydroxyethyl)benzenesulfonamide] was 110 nM.
Compound `Cc1c(Nc2c(C#N)cnc3sc(-c4nccn4C)cc23)ccc2[nH]ccc12` [Compound 432, 2-(1-methyl-1H-imidazol-2-yl)-4-[(4-methyl-1H-indol-5-yl)amino]thieno[2,3-b]pyridine-5-carbonitrile] returned an IC50 of 49 nM.
`Cn1ccnc1-c1cc2c(Nc3ccc4[nH]ccc4c3)c(C#N)cnc2s1` [Compound 433, 4-(1H-indol-5-ylamino)-2-(1-methyl-1H-imidazol-2-yl)thieno[2,3-b]pyridine-5-carbonitrile]: inhibition was half-maximal at 527 nM (IC50).
Compound `Cc1c(Nc2c(C#N)cnc3sc(-c4cc5ccccc5[nH]4)cc23)ccc2[nH]ccc12` [Compound 434, 2-(1H-indol-2-yl)-4-[(4-methyl-1H-indol-5-yl)amino]thieno[2,3-b]pyridine-5-carbonitrile] yielded an IC50 of 70 nM.
`CC(=O)Nc1ccccc1-c1cc2c(Nc3ccc4[nH]ccc4c3C)c(C#N)cnc2s1` [Compound 435, N-(2-{5-cyano-4-[(4-methyl-1H-indol-5-yl)amino]thieno[2,3-b]pyridin-2-yl}phenyl)acetamide]: 282 nM corresponded to half-maximal inhibition (IC50).
`Cc1c(Nc2c(C#N)cnc3sc(-c4ccccc4N)cc23)ccc2[nH]ccc12` [Compound 436, 2-(2-aminophenyl)-4-[(4-methyl-1H-indol-5-yl)amino]thieno[2,3-b]pyridine-5-carbonitrile] showed an IC50 of 215 nM.
As to `Cc1c(Nc2c(C#N)cnc3sc(-c4cccc(O)c4)cc23)ccc2[nH]ccc12` [Compound 437, 2-(3-hydroxyphenyl)-4-[(4-methyl-1H-indol-5-yl)amino]thieno[2,3-b]pyridine-5-carbonitrile], the IC50 was determined as 11 nM.
Regarding `Cc1c(Nc2c(C#N)cnc3sc(-c4cccnc4)cc23)ccc2[nH]ccc12` [Compound 438, 4-[(4-methyl-1H-indol-5-yl)amino]-2-pyridin-3-ylthieno[2,3-b]pyridine-5-carbonitrile], the IC50 amounted to 14 nM.
Regarding `Cc1c(Nc2c(C#N)cnc3sc(-c4ccncc4)cc23)ccc2[nH]ccc12` [Compound 439, 4-[(4-methyl-1H-indol-5-yl)amino]-2-pyridin-4-ylthieno[2,3-b]pyridine-5-carbonitrile], the IC50 was determined as 13 nM.
Compound `Cc1c(Nc2c(C#N)cnc3sc(-c4ccccn4)cc23)ccc2[nH]ccc12` [Compound 440, 4-[(4-methyl-1H-indol-5-yl)amino]-2-pyridin-2-ylthieno[2,3-b]pyridine-5-carbonitrile] came in with an IC50 of 16 nM.
`Cc1c(Nc2c(C#N)cnc3sc(-c4ccc(O)cc4)cc23)ccc2[nH]ccc12` [Compound 441, 2-(4-hydroxyphenyl)-4-[(4-methyl-1H-indol-5-yl)amino]thieno[2,3-b]pyridine-5-carbonitrile] displayed an IC50 of 29 nM.
Consider `Cc1c(Nc2c(C#N)cnc3sc(-c4ccccc4O)cc23)ccc2[nH]ccc12` [Compound 442, 2-(2-hydroxyphenyl)-4-[(4-methyl-1H-indol-5-yl)amino]thieno[2,3-b]pyridine-5-carbonitrile], for which half-maximal inhibition (IC50) required 273 nM.
The value for `Cc1c(Nc2c(C#N)cnc3sc(C#CCCN4CCN(C)CC4)cc23)ccc2[nH]ccc12` [Compound 450, 4-[(4-methyl-1H-indol-5-yl)amino]-2-[4-(4-methylpiperazin-1-yl)but-1-yn-1-yl]thieno[2,3-b]pyridine-5-carbonitrile] was 126 nM; that for `Cc1cc(CN(C)C)cc(-c2cc3c(Nc4ccc5[nH]ccc5c4C)c(C#N)cnc3s2)c1` [Compound 454, 2-{3-[(dimethylamino)methyl]-5-methylphenyl}-4-[(4-methyl-1H-indol-5-yl)amino]thieno[2,3-b]pyridine-5-carbonitrile] was 8 nM.
`CCCOc1c(CN(C)C)cc(C)cc1-c1cc2c(Nc3ccc4[nH]ccc4c3C)c(C#N)cnc2s1` [Compound 455, 2-{3-[(dimethylamino)methyl]-5-methyl-2-propoxyphenyl}-4-[(4-methyl-1H-indol-5-yl)amino]thieno[2,3-b]pyridine-5-carbonitrile] returned an IC50 of 29 nM.
In turn, `COc1ccc(-c2cc3c(Nc4ccc5[nH]ccc5c4)c(C#N)cnc3s2)cc1CN(C)C` [Compound 456, 2-{3-[(dimethylamino)methyl]-4-methoxyphenyl}-4-(1H-indol-5-ylamino)thieno[2,3-b]pyridine-5-carbonitrile] had an IC50 of 318 nM.
For `COc1ccc(CN(C)C)cc1-c1cc2c(Nc3ccc4[nH]ccc4c3C)c(C#N)cnc2s1` [Compound 457, 2-{5-[(dimethylamino)methyl]-2-methoxyphenyl}-4-[(4-methyl-1H-indol-5-yl)amino]thieno[2,3-b]pyridine-5-carbonitrile], it took 5 nM to reach half-maximal inhibition (IC50).
As for `Cc1c(Nc2c(C#N)cnc3sc(-c4cccc(CN(C)C)c4)c(C)c23)ccc2[nH]ccc12` [Compound 458, 2-{3-[(dimethylamino)methyl]phenyl}-3-methyl-4-[(4-methyl-1H-indol-5-yl)amino]thieno[2,3-b]pyridine-5-carbonitrile], the figure is 99 nM; as for `COc1ccc(CN(C)C)cc1-c1sc2ncc(C#N)c(Nc3ccc4[nH]ccc4c3C)c2c1C` [Compound 459, 2-{5-[(dimethylamino)methyl]-2-methoxyphenyl}-3-methyl-4-[(4-methyl-1H-indol-5-yl)amino]thieno[2,3-b]pyridine-5-carbonitrile], 243 nM.
Consider `Cc1c(Nc2c(C#N)cnc3sc(-c4ccc(CN(C)C)cc4)c(C)c23)ccc2[nH]ccc12` [Compound 460, 2-{4-[(dimethylamino)methyl]phenyl}-3-methyl-4-[(4-methyl-1H-indol-5-yl)amino]thieno[2,3-b]pyridine-5-carbonitrile], for which 61 nM corresponded to half-maximal inhibition (IC50).
The value for `COc1ccc(CN2CCN(C)CC2)cc1-c1cc2c(Nc3ccc4[nH]ccc4c3C)c(C#N)cnc2s1` [Compound 461, 2-{2-methoxy-5-[(4-methylpiperazin-1-yl)methyl]phenyl}-4-[(4-methyl-1H-indol-5-yl)amino]thieno[2,3-b]pyridine-5-carbonitrile] was 6 nM; that for `Cc1c(Nc2c(C#N)cnc3sc(-c4cncc(CN(C)C)c4)cc23)ccc2[nH]ccc12` [Compound 462, 2-{5-[(dimethylamino)methyl]pyridin-3-yl}-4-[(4-methyl-1H-indol-5-yl)amino]thieno[2,3-b]pyridine-5-carbonitrile] was 83 nM.
